PubChem BioAssay (NCI)
Where “and” joins values, the source holds several entries; their conditions need not be identical. Identical values can stand only once.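 Tested at 5 concentrations; 48 h exposure; 96-well plates; endpoints linearly interpolated, else capped at highest concentration. GI50 = concentration required for 50% inhibition of growth. TGI marks complete inhibition of growth.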

Experiments:
Assay in all cases: inhibition of tumour cell growth, NCI panel, 48 h
[1] = test system: KM20L2 colon
[2] = test system: DLD-1 colon
[3] = test system: LXFL 529 NSCLC
[4] = test system: M19-MEL melanoma
[5] = test system: SNB-78 CNS
[6] = test system: DMS 273 small cell lung
[7] = test system: MDA-N
[8] = test system: XF 498 CNS
[9] = test system: RXF-631 renal

Row | SMILES | GI50 [1] [µM] | TGI [1] [µM] | GI50 [2] [µM] | TGI [2] [µM] | GI50 [3] | TGI [3] | GI50 [4] [µM] | TGI [4] [µM] | GI50 [5] | TGI [5] [µM] | GI50 [6] [µM] | TGI [6] [µM] | TGI [7] [µM] | TGI [8] [µM] | TGI [9] [µM]
1 | Cc1[cH-]c(=O)n(-c2ccccc2)n1.[Au+].[Au].c1ccc([PH+](c2ccccc2)c2ccccc2)cc1.c1ccc([PH+](c2ccccc2)c2ccccc2)cc1 | 66.7 | > 100 | 15.7 | 41.5 | 0.488 µM and 1.09 µM | 2.38 µM and 3.55 µM | 28.1 | > 100 | 3.43 µM and 14.6 µM | > 100 | 10.3 | 30.7 | – | – | –
2 | C[C@@H]1CC[C@H]2C(C)(C)[C@H]3C[C@@]12CC[C@@]3(C)O | – | – | – | – | – | – | – | – | – | – | – | – | > 100 | – | –
3 | CN1C(=O)C(=O)N2c3ccc(Cl)cc3C3(c4ccccc4)N=CC12O3 (stereo not given) | – | 24.1 | – | 10.3 | – | 10.2 µM | – | 13.7 | – | 33.8 | – | 16.4 | – | 12.3 | –
4 | O=c1[nH]c(-c2ccccc2)nc2cc(Cl)ccc12 | – | > 100 | – | > 100 | – | > 100 µM | – | > 100 | – | > 100 | – | > 100 | – | > 100 | > 100
5 | N#CC(C(=O)CCC(=O)Nc1ccc(Cl)c(Cl)c1)c1ccccc1 (stereo not given) | – | > 100 | – | > 100 | – | – | – | > 100 | – | > 100 | – | > 100 | – | > 100 | –
6 | CCCOc1nc(N)c2cnn(C3CCCCO3)c2n1 (stereo not given) | – | > 100 | – | > 100 | – | > 100 µM | – | > 100 | – | > 100 | – | > 100 | – | – | –
7 | O=C(NC1C=CCC2C(=O)N(c3ccccc3)C(=O)C12)OCc1ccccc1 (stereo not given) | – | > 100 | – | > 100 | – | > 100 µM | – | > 100 | – | > 100 | – | > 100 | – | > 100 | –
8 | O=C1C(C(Nc2ccccc2)c2ccccc2)=C([O-])c2ccccc21.O=C1C(C(Nc2ccccc2)c2ccccc2)=C([O-])c2ccccc21.[Cu+2] (stereo not given) | 52.5 | > 100 | 34.6 | > 100 | – | – | > 100 | > 100 | 84.6 µM | > 100 | 26.3 | > 100 | – | – | –
9 | CN(C)CC1CCC/C1=N/OC(=O)c1ccccc1 (stereo not given) | – | > 100 | – | > 100 | – | > 100 µM | – | > 100 | – | > 100 | – | > 100 | – | – | > 100
10 | CC1(C)CC(c2c[nH]c3ccccc23)=CC2=Nc3ccccc3C21O (stereo not given) | – | > 100 | – | > 100 | – | > 100 µM | – | > 100 | – | > 100 | – | > 100 | – | > 100 | –
11 | O=S1C(=c2ccc(=C3Sc4ccccc4S3)cc2)Sc2ccccc21 (stereo not given) | – | 31.9 | – | > 93.3 | – | > 100 µM | – | 38.3 | – | > 100 | – | 37.1 | – | – | –
12 | COC1=CC(=O)C(C2(OC(C)C)OC(=O)C(Cl)=C2Cl)=CC1=O (stereo not given) | – | – | – | – | – | – | – | – | – | – | – | – | > 100 | – | –
13 | [O-][Cl+3]([O-])([O-])[O-].[O]=[Ru]=[O].c1ccc(-c2ccccn2)nc1.c1ccc(-c2ccccn2)nc1 | > 100 | > 100 | > 100 | > 100 | 41.3 µM | > 100 µM | > 100 | > 100 | > 100 µM | > 100 | 22.4 | > 100 | – | – | –
14 | O=c1c2cccnc2ncn1CCN1CCCCC1 | – | > 100 | – | > 100 | – | > 100 µM | – | > 100 | – | > 100 | – | > 100 | – | > 100 | –
15 | CCC(C)SC1SCC2C(=O)N(C)C3(CC3C)C(=O)OCC(NC(=O)c3nc4ccccc4cc3O)C(=O)NC(C)C(=O)N(C)C1C(=O)N(C)C1(CC1C)C(=O)OCC(NC(=O)c1nc3ccccc3cc1O)C(=O)NC(C)C(=O)N2C (stereo not given) | – | 0.000446 | – | 0.0732 | – | 0.791 µM | – | 0.000236 | – | 0.255 | – | 0.000123 | 0.000162 | 0.000434 | 1.22
16 | CN(C)C=Nc1nc(=O)n(C2CCC(CO)O2)cc1F (stereo not given) | – | > 100 | – | > 100 | – | > 100 µM | – | – | – | > 100 | – | > 100 | – | > 100 | –
17 | COc1ccc2c(c1)[n+]([O-])c(C(N)=O)c(N)[n+]2[O-] | – | > 100 | – | > 100 | – | > 100 µM | – | > 100 | – | > 100 | – | > 100 | – | – | > 100
18 | CCOC(=O)C1=C(C)N(NC(=O)Nc2ccccc2)C2(N)N(NC(=O)Nc3ccccc3)C(C)=C(C(=O)OCC)C12C(=O)OCC (stereo not given) | – | > 100 | – | > 100 | – | > 100 µM | – | > 100 | – | > 100 | – | > 100 | – | 37.9 | > 100
19 | C=C(C)C(=O)O[C@@H]1C[C@@]2(C)O[C@@H]2C[C@H](O)/C(C)=C/[C@H]2OC(=O)C(=C)[C@@H]21 | – | – | – | – | – | – | – | – | – | – | – | – | > 100 | – | –
20 | C/C(CN1C(=O)c2ccccc2C1=O)=N\NS(=O)(=O)c1ccc(Cl)cc1 | – | > 100 | – | > 100 | – | > 100 µM | – | > 100 | – | > 100 | – | > 100 | – | > 100 | > 100

Row | SMILES | GI50 [1] [µM] | TGI [1] [µM] | GI50 [2] [µM] | TGI [2] [µM] | GI50 [3] | TGI [3] | GI50 [4] [µM] | TGI [4] [µM] | GI50 [5] | TGI [5] [µM] | GI50 [6] [µM] | TGI [6] [µM] | TGI [7] [µM] | TGI [8] [µM] | TGI [9] [µM]
21 | Nc1nc2[nH]cc(CCc3ccc(C(=O)N[C@@H](CCC(=O)O)C(=O)O)cc3)c2c(=O)[nH]1 | – | – | – | – | – | – | – | – | – | – | – | – | > 100 | – | –
22 | CC#Cc1ccc(-c2ccccc2)s1 | – | – | – | – | – | – | – | – | – | – | – | – | > 100 | – | –
23 | COc1ccc(/C=C/COC(C)=O)cc1OC | – | > 100 | – | – | – | > 100 µM | – | > 100 | – | > 100 | – | > 100 | – | – | –
24 | O=C(/C=C/c1c(O)ccc2ccccc12)c1ccc([N+](=O)[O-])cc1 | – | > 100 | – | 40.8 | – | 30.4 µM | – | 35.4 | – | 66.4 | – | > 100 | – | > 100 | –
25 | CN(C)CC1CCCC/C1=N/O (stereo not given) | – | > 100 | – | > 100 | – | > 100 µM | – | > 100 | – | > 100 | – | > 100 | – | – | > 100
26 | NC(N)=NS(=O)(=O)c1ccc(N=Nc2c(O)c(C(=O)O)cc3ccccc23)cc1 | – | – | – | – | – | – | – | – | – | – | – | – | > 100 | – | –
27 | CC(=O)[O-].CC(=O)[O-].O=C(N/N=C/c1cc(Cl)cc(Cl)c1O)c1ccncc1.[Cu+2] | – | > 100 | – | – | – | – | – | – | – | – | – | – | – | – | –
28 | COc1cc2c(cc1OC)C(Cl)C(c1ccc(F)cc1)=C2Cl (stereo not given) | – | 28 | – | 32.9 | – | 24 µM | – | 38.7 | – | 68.6 | – | 31.9 | – | – | –
29 | COc1c(CC(C)=O)ccc2c1C(=O)c1ccc(C=O)c(OC(C)=O)c1C2=O | – | 37.8 | – | 14.3 | – | 19.4 µM | – | – | – | 55.6 | – | 24.5 | – | – | 47.8
30 | N#CCCC[Si]12OCCN(CCO1)CCO2 | – | – | – | > 100 | – | > 100 µM | – | > 100 | – | > 100 | – | > 100 | – | – | –
31 | Cc1ccc(S(=O)(=O)N2CCC2c2ccccc2)cc1 (stereo not given) | – | > 100 | – | – | – | – | – | > 100 | – | > 100 | – | > 100 | – | > 100 | –
32 | C[C@@]1(O)CC[C@]2(C)C3CCCC3[C@H]12 (stereo not given in full) | – | > 100 | – | > 100 | – | > 100 µM | – | > 100 | – | > 100 | – | > 100 | – | – | > 100
33 | Br[Se]c1ccccn1 | – | – | – | – | – | – | – | – | – | – | – | – | 32.2 | – | –
34 | CC(=O)Nc1cc2ccc(=O)oc2cc1Cl | – | – | – | – | – | – | – | – | – | – | – | – | > 100 | – | –
35 | C=C(C)C12OC1[C@@]1(C)C(=CC2=O)CCC(O)[C@@H]1C (stereo not given in full) | – | – | – | – | – | – | – | – | – | – | – | – | 17.3 | – | –
36 | O=C1CSC(=S)N1/N=C/c1ccc(Cl)c([N+](=O)[O-])c1 | – | – | – | – | – | – | – | – | – | – | – | – | 52.6 | – | –
37 | CC(=O)OC1(C)N=NC2(CCCCC2)O1 (stereo not given) | – | – | – | – | – | – | – | – | – | – | – | – | > 100 | – | –
38 | O=C1c2ccccc2C(=O)c2c(/C=C\N3CCCCC3)ccnc21 | – | 32.6 | – | 15.8 | – | 15 µM | – | 0.563 | – | 61.8 | – | 10.4 | 0.352 | 27.2 | > 45.8
39 | CCOc1ccc(NC2=CC(=O)C(=O)c3ccccc32)cc1 | – | 36.7 | – | 21.7 | – | 11.2 µM | – | 2.03 | – | 39.5 | – | 8.01 | 3.94 | 5.31 | –
